Results on 27 molecules are retold here after patent US20070213301A1 (ACHILLION PHARMACEUTICALS, INC., priority 2006, published 2007).

Molecules are shown by their SMILES.

By EC50 is commonly meant the concentration that produces a half-maximal response.

This experiment concerns HCV replicon. Description: HCV replicon replication assay (NPTII ELISA). The format is cell-based, Hepatitis C virus (Huh-7 cells). The settings on record: Hepatitis C virus, Huh-7, 72 h, inhibition of HCV replicon replication in Huh-7 HCV replicon-containing cells, three days incubation, NPT level by ELISA; read-out: EC50. The protocol:
Compounds claimed herein are tested for the ability to inhibit viral replication of the Hepatitis C replicon in cultured cells in which the HCV replicon construct has been incorporated. The HCV replicon system was described by Bartenschlager, et. al (Science, 285, pp. 110-113 (1999)). The replicon system is predictive of in vivo anti-HCV activity; compounds that are active in humans uniformly evidence activity in the replicon assay.
In this assay HCV replicon containing cells are treated with different concentrations of the test compound to ascertain the ability of the test compound to suppress replication of the HCV replicon. As a positive control, HCV replicon-containing cells are treated with different concentrations of interferon alpha, a known inhibitor of HCV replication. The replicon assay system includes Neomycin Phosphotransferase (NPT) as a component of the replicon itself in order to detect the transcription of replicon gene products in the host cell. Cells in which the HCV replicon is actively replicating have high levels of NPT; the level of NPT is proportional to HCV replication. […] The NPT level of each sample is measured using a captured ELISA.
The HCV replicon contains, 5′-3′, the HCV-IRES, the neomycin phosphotransferase (neo) gene, the IRES of encephalomyocarditis virus, which directs translation of HCV sequences NS3 to NS5B, and the 3′-NTR. The sequence of the HCV replicon has been deposited in GenBank (Accession no. AJ242652).
The replicon is transfected into Huh-7 cells using standard methods such as electroporation.
The cells are then seeded onto 96-well plates at a density of 6000-7500 cells/100 microliters/well (6-7.5×10^5 cells/10 ml/plate). The plates are then incubated at 37° C. in a 5% CO2 incubator.
HCV replicon-containing cells are rinsed with once PBS once; 2 mls of trypsin are then added. Cells are incubated at 37° C. in a 5% CO2 incubator for 3-5 minutes. 10 mls of complete medium is added to stop the reaction. Cells are blown gently, put into a 15 ml tube, and spun at 1200 rpm for four minutes. The trypsin/medium solution is removed and 5 mls of medium (500 ml DMEM (high glucose)) from BRL catalog #12430-054; 50 mls 10% FBS, 5% Geneticin G418 (50 mg/ml, BRL catalog #10131-035), 5 ml MEM non-essential amino acids (100× BRL #11140-050) and 5 ml pen-strep (BRL #15140-148) is added. The cells and media are mixed carefully
Cells are plated with screening medium (500 ml DMEM (BRL #21063-029), 50 ml FBS (BRL #10082-147) and 5 ml MEM non-essential amino acid (BRL #11140-050) at 6000-7500 cells/100 μl/well of 96 well plate (6-7.5×10^5 cells/10 ml/plate). Plates are placed into 37° C. 5% CO2 incubator overnight.
The following morning, drugs (test compounds or interferon alpha) are diluted in 96 well U bottom plates with media or DMSO/media, depending on the final concentration chosen for screening. Generally for 6 concentrations of each test compounds ranging from 10 micromolar to 0.03 micromolar are applied. 100 μl of the test compound dilution is placed in wells of the 96 well plate containing the HCV replicon cells. Media without drug is added to some wells as a negative controls. DMSO is known to affect cell growth. Therefore, if drugs diluted in DMSO are used, all wells, including negative control (media only) and positive control (interferon alpha) wells, must contain the same concentration of DMSO, for single dose screening. The plates are incubated at 37° C. in a humidified 5% CO2 environment for three days.
On day four, the NTPII assay is quantitated. The medium is poured from the plates and the plates are washed once in 200 μl of PBS. The PBS is then decanted and the plates tapped in a paper towel to remove any remaining PBS. Cells are fixed in situ with 100 μl/well of pre-cooled (−20° C.) methanol:acetone (1:1) and the plates are placed at −20° C. for 30 minutes.
The fixing solution is poured from the plates and the plates allowed to air-dry completely (approximately one hour). […]
For orientation: Replicon systems follow genome replication, usually without infectious particles.

In the case of `CCCCCN(C)c1ccc(N(C(=O)C(=O)OC)c2nc(-c3cccnc3)cs2)cc1C(F)(F)F` [Compound 53, methyl 2-((4-(methyl(pentyl)amino)-3-(trifluoromethyl)phenyl)(4-(pyridin-3-yl)thiazol-2-yl)amino)-2-oxoacetate], the EC50 was under 1000 nM.

As to `CCCCCOc1ccc(N(C(=O)COC(C)=O)c2nc(-c3ccc(F)c(F)c3)cs2)cc1C(F)(F)F` [Compound 54, 2-((4-(3,4-difluorophenyl)thiazol-2-yl)(4-(pentyloxy)-3-(trifluoromethyl)phenyl)amino)-2-oxoethyl acetate], the EC50 is under 1000 nM.

With `CCCCCOc1ccc(N(C(=O)OC)c2nc(-c3ccc(F)c(F)c3)cs2)cc1C(F)(F)F` [Compound 56, methyl 4-(3,4-difluorophenyl)thiazol-2-yl(4-(pentyloxy)-3-(trifluoromethyl)phenyl)carbamate], the EC50 was under 1000 nM.

For `CCCCCCCCOc1ccc(N(C(=O)COC(C)=O)c2nc(-c3ccc(F)c(F)c3)cs2)cc1` [Compound 57, 2-((4-(3,4-difluorophenyl)thiazol-2-yl)(4-(octyloxy)phenyl)amino)-2-oxoethyl acetate], the EC50 is under 1000 nM.

As to `CCCCCCCCOc1ccc(N(C(=O)C(=O)OC)c2nc(-c3ccc(F)c(F)c3)cs2)cc1` [Compound 58, methyl 2-((4-(3,4-difluorophenyl)thiazol-2-yl)(4-(octyloxy)phenyl)amino)-2-oxoacetate], the EC50 is under 1000 nM.

`CCCCCCCCOc1ccc(N(C(=O)OC)c2nc(-c3ccc(F)c(F)c3)cs2)cc1` [Compound 59, methyl 4-(3,4-difluorophenyl)thiazol-2-yl(4-(octyloxy)phenyl)carbamate]: the EC50 lay within 1000 to 10000 nM.

Take `CCCCCCCCOc1ccc(N(C(=O)COC(C)=O)c2nc(-c3ccc(F)cc3)cs2)cc1` [Compound 60, 2-((4-(4-fluorophenyl)thiazol-2-yl)(4-(octyloxy)phenyl)amino)-2-oxoethyl acetate]: the EC50 was under 1000 nM.

Take `CCCCCCCCOc1ccc(N(C(N)=O)c2nc(-c3ccc(F)cc3)cs2)cc1` [Compound 61, 1-(4-(4-fluorophenyl)thiazol-2-yl)-1-(4-(octyloxy)phenyl)urea]: the EC50 fell in the range of 1000 to 10000 nM.

As to `CCCCCOc1ccc(N(C(=O)CO)c2nc(-c3cccnc3)cs2)cc1C(F)(F)F` [Compound 62, 2-hydroxy-N-(4-(pentyloxy)-3-(trifluoromethyl)phenyl)-N-(4-(pyridin-3-yl)thiazol-2-yl)acetamide], the EC50 is under 1000 nM.

As to `CCCCCCCCOc1ccc(N(C(=O)C(C)OC(C)=O)c2nc(-c3ccc(C)nc3)cs2)cc1` (stereo not drawn) [Compound 63, 1-((4-(6-methylpyridin-3-yl)thiazol-2-yl)(4-(octyloxy)phenyl)amino)-1-oxopropan-2-yl acetate], the EC50 is under 1000 nM.

Take `CCCCCOc1ccc(N(C(=O)C(C)OC(C)=O)c2nc(-c3cccnc3)cs2)cc1C(F)(F)F` (stereo not drawn) [Compound 64, 1-oxo-1-((4-(pentyloxy)-3-(trifluoromethyl)phenyl)(4-(pyridin-3-yl)thiazol-2-yl)amino)propan-2-yl acetate]: the EC50 is under 1000 nM.

`CCCCCOc1ccc(N(C(=O)C(OC(C)=O)c2ccccc2)c2nc(-c3cccnc3)cs2)cc1C(F)(F)F` (stereo not drawn) [Compound 65, 2-oxo-2-((4-(pentyloxy)-3-(trifluoromethyl)phenyl)(4-(pyridin-3-yl)thiazol-2-yl)amino)-1-phenylethyl acetate]: the EC50 was under 1000 nM.

Take `CCCCCCCCOc1ccc(N(C(=O)C(=O)OCC)c2nc(-c3cccnc3)cs2)cc1` [Compound 66, ethyl 2-((4-(octyloxy)phenyl)(4-(pyridin-3-yl)thiazol-2-yl)amino)-2-oxoacetate]: the EC50 was under 1000 nM.

For `CCCCCCCCOc1ccc(N(C(=O)COC(C)=O)c2nc(-c3cccnc3)cs2)cc1` [Compound 67, 2-((4-(octyloxy)phenyl)(4-(pyridin-3-yl)thiazol-2-yl)amino)-2-oxoethyl acetate], the EC50 was under 1000 nM.

Regarding `CCCCCCCCOc1ccc(N(C(C)=O)c2nc(-c3cccnc3)cs2)cc1` [Compound 68, N-(4-(octyloxy)phenyl)-N-(4-(pyridin-3-yl)thiazol-2-yl)acetamide], the EC50 was under 1000 nM.

Regarding `CCCCCOc1ccc(N(C(N)=O)c2nc(-c3ccc(F)cc3)cs2)cc1C(F)(F)F` [Compound 69, 1-(4-(4-fluorophenyl)thiazol-2-yl)-1-(4-(pentyloxy)-3-(trifluoromethyl)phenyl)urea], the EC50 was under 1000 nM.

As for `CCCCCOc1ccc(N(C(N)=O)c2nc(-c3cccnc3C)cs2)cc1C(F)(F)F` [Compound 70, 1-(4-(2-methylpyridin-3-yl)thiazol-2-yl)-1-(4-(pentyloxy)-3-(trifluoromethyl)phenyl)urea], the EC50 was under 1000 nM.

On to `CCCCCCCOc1ccc(N(C(N)=O)c2nc(-c3ccc(F)cc3)cs2)cc1` [Compound 71, 1-(4-(4-fluorophenyl)thiazol-2-yl)-1-(4-(heptyloxy)phenyl)urea], for which the EC50 is under 1000 nM.

`CCCCCCCCOc1ccc(N(C(N)=O)c2nc(-c3cccnc3)cs2)cc1` [Compound 72, 1-(4-(octyloxy)phenyl)-1-(4-(pyridin-3-yl)thiazol-2-yl)urea]: the EC50 was under 1000 nM.

On to `CCCCCCCCOc1ccc(N(C(=O)NCC)c2nc(-c3cccnc3)cs2)cc1` [Compound 73, 3-ethyl-1-(4-(octyloxy)phenyl)-1-(4-(pyridin-3-yl)thiazol-2-yl)urea], for which the EC50 was over 10000 nM.

Take `CCCCCCCCOc1ccc(N(C(=O)NC(C)(C)C)c2nc(-c3cccnc3)cs2)cc1` [Compound 74, 3-tert-butyl-1-(4-(octyloxy)phenyl)-1-(4-(pyridin-3-yl)thiazol-2-yl)urea]: the EC50 fell in the range of 1000 to 10000 nM.

In the case of `CCCCCOc1ccc(N(C(=O)NCC)c2nc(-c3cccnc3)cs2)cc1C(F)(F)F` [Compound 75, 3-ethyl-1-(4-(pentyloxy)-3-(trifluoromethyl)phenyl)-1-(4-(pyridin-3-yl)thiazol-2-yl)urea], the EC50 was under 1000 nM.

For `CCCCCOc1ccc(N(C(=O)NC(C)(C)C)c2nc(-c3cccnc3)cs2)cc1C(F)(F)F` [Compound 76, 3-tert-butyl-1-(4-(pentyloxy)-3-(trifluoromethyl)phenyl)-1-(4-(pyridin-3-yl)thiazol-2-yl)urea], the EC50 was under 1000 nM.

Take `CCCCCOc1ccc(N(C(N)=O)c2nc(-c3ccc(C(=O)N(C)C)nc3)cs2)cc1C(F)(F)F` [Compound 77, N,N-dimethyl-5-(2-(1-(4-(pentyloxy)-3-(trifluoromethyl)phenyl)ureido)thiazol-4-yl)picolinamide]: the EC50 is under 1000 nM.

As to `CCCCCCCCOc1ccc(N(C(N)=O)c2nc(-c3ccc(C(=O)N(C)C)nc3)cs2)cc1` [Compound 78, N,N-dimethyl-5-(2-(1-(4-(octyloxy)phenyl)ureido)thiazol-4-yl)picolinamide], the EC50 is over 10000 nM.

Take `CCCCCCCOc1ccc(N(C(N)=O)c2nc(-c3ccc(C(=O)N(C)C)nc3)cs2)cc1` [Compound 79, 5-(2-(1-(4-(heptyloxy)phenyl)ureido)thiazol-4-yl)-N,N-dimethylpicolinamide]: the 50% effective concentration (EC50) was over 10000 nM.

With `CCCCCCCCOc1ccc(N(C(N)=O)c2nc(-c3ccncc3)cs2)cc1` [Compound 80, 1-(4-(octyloxy)phenyl)-1-(4-(pyridin-4-yl)thiazol-2-yl)urea], the EC50 was over 10000 nM.
